Results from patent US20260097090A1, “HERBAL MEDICINE EXTRACTS RM01 AND USES AND METHODS OF PREPARATION THEREOF” (RenuMemo Therapeutics LLC, priority 2022, published 2026).

Test system: patient with severe Alzheimer's disease
Test: Human efficacy case study, Mini Mental State Examination (MMSE) and family report
Assay type: in vivo
Conditions: same patient, long time taking Memantine and Donepezil before RM01; drugs stopped before the visit
Experimental: The patient has been taking Memantine and Donepezil to treat their disease. However, both drugs were stopped before the visit.
The patient was evaluated by Mini Mental State Examination (MMSE) during the first visit.
The patient was given the herbal extract composition RM01 twice a day every day, for five weeks. Family member assisted all the process.
The patient was re-evaluated of MMSE after 1 week of treatment. In the meantime, the family member was questioned on patient daily life, regarding sleep, mood, reaction to people, behavioral and psychological symptoms.
The treatment and re-evaluation lasted 5 weeks.

Compound	patient symptom improvement on prior medication, informed by the patient's spouse
COc1cc2c(cc1OC)C(=O)C(CC1CCN(Cc3ccccc3)CC1)C2 (centres unmarked) [Donepezil]	not much effect
CC12CC3CC(C)(C1)CC(N)(C3)C2 [Memantine]	not much effect
